Laboratory results from patent publication US4535075A, “Dithiolane derivative, process for producing the same and use thereof” (Nihon Nohyaku Co., Ltd., priority 1982, dated 1985).
In brackets after ≈: the same amount, converted by molar mass. Where two headings read alike, the source gives them in different places.

Legend:
[1] = acute oral toxicity (LD50); conditions: in vivo, male rat
Procedure: The compounds represented by the general formula (I) are low in toxicity to mammals.
Their acute oral toxicities to male rat expressed as LD50 values are shown below.
For example, the LD50 values of the compound No. 1, No. 2, No. 3, No. 8 and No. 12 are 1,000-3,000 mg/kg, 3,000-5,000 mg/kg, more than 5,000 mg/kg, more than 5,000 mg/kg and 1,000-3,000 mg/kg, respectively.

water solubility = type: physicochemical
[2] = system: liver damage induced by carbon tetrachloride; assay: Protective (Controlling) effect on liver damage induced by carbon tetrachloride; type: in vivo, mice (dd strain); conditions: 250 mg/kg p.o., CCl4 0.05 ml/kg after 6 h, 24 h; for p-GPT: CCl4 alone >2,100; for Liver Damage Index: average of 5 mice, 0 Normal, 2 Slightly recognized, 4 Clearly observable damage, 6 Heavy damage, CCl4 alone 5.0
Source text: Protective (Controlling) Effect on liver damage induced by carbon tetrachloride.
Carbon tetrachloride administration induces centrilobular necrosis of the liver associated with loss of diphosphopyridine nucleotide, hepatic glycogen, coenzyme A and increase in neutral fat. Release of several enzymes from the hepatocytes, and increases of enzyme activities in the plasma are recognized as the result of the damage of the liver.
A suitable means for evaluating the degree induced by carbon tetrachloride or the degree of protection afforded by drugs is to study the plasma glutamic-pyruvic transaminase (p-GPT) activity. […]
After 6 hours, carbon tetrachloride was administered orally 0.05 ml/kg.
Animals were killed 24 hours after carbon tetrachloride administration, and the liver was grossly observed.
The plasma was obtained by centrifugation. Activity of p-GPT were determined by the method of Reitman and Frankel and expressed in Karmen units.
Score for liver damage index was as follows:
1 Each figure indicated average of 5 mice.

[3] = system: liver damage induced by α-naphthyl isothiocyanate (ANIT); assay: Protective effect on liver damage induced by ANIT (Method 1); type: in vivo, mice; conditions: 2 x 250 mg/kg p.o., ANIT 35 mg/kg p.o., 24 h
Source text: (§1) Protective effect on liver damage induced by α-naphthyl isothiocyanate (referred to as "ANIT", hereinafter).
It is well known that experimental cholestasis is accomplished by administration with ANIT in mice and rats, and studied as a cholestasis model in human being.
ANIT and CCl4 induce necrosis in the liver. ANIT causes it as small focci in perilobular parenchyna and CCl4 causes centrilobular parenchymal coagulation necrosis.
From these information, the elevation of plasma GPT activity in these models are thought to have defferent characteristics.
Test compounds, dissolved or suspended in olive oil or diethyleneglycol, were orally administered 2 times at intervals of 3 hrs to mice at the dose of 250 mg/kg. At 3 hrs after the second administration with test compounds, ANIT was administered orally at 35 mg/kg.
Mice were sacrificed at 24 hrs after ANIT administration and blood samples were collected. The blood samples were centrifuged and plasma was obtained.
Plasma GPT activity and alkaline phosphatase activity were determined by Reitman & Frankel's method and Bessey-Lowry's method, respectively. The activity was expressed with Karmen Unit and Bessey-Lowry Unit, respectively.

[4] = system: fatty liver induced by carbon tetrachloride; assay: Protective effect on fatty liver (carbon tetrachloride); type: in vivo, rats (SD strain); conditions: percentage of mean value in carbon tetrachloride alone group, 100 mg/kg/day p.o. for 4 days, control 32.0
Procedure: Carbon tetrachloride also induces fatty liver. Carbon tetrachloride is generally considered to damage microsome and thereby to inhibit protein synthesis and induce fatty liver.
Carbon tetrachloride was subcutaneously administered to 5-6 week-old male rats (SD strain) for 4 days at the dose of 0.5 ml/kg/day.
Simultaneously, the compound of the present invention was orally administered to the rats for 4 days at the dose of 30 mg/kg/day or 100 mg/kg/day.
On the 5th day, the rats were sacrificed by exsanguination.
The controlling (protective) effect was evaluated by determining the content of triglyceride in the liver.
Triglyceride was determined colorimetrically by chromotropic acid method.
Each value represented the percentage of mean value in carbon tetrachloride alone group.

[5] = system: liver damage induced by α-naphthyl isothiocyanate (ANIT); assay: Protective effect on liver damage induced by ANIT (Method 2); type: in vivo, mice (dd strain); conditions: 250 mg/kg p.o., ANIT 35 mg/kg p.o. after 6 h, 24 h
Procedure: as §1
Test compounds, dissolved or suspended in olive oil or diethyleneglycol, were orally administered at the dose of 250 mg/kg to the mice (Six or Seven-week-old male mice-dd strain).
After 6 hours, ANIT dissolved in olive oil, was aministered orally at 35 mg/kg.
Mice were sacrificed at 24 hours after ANIT administration and blood samples were collected. The blood samples were centrifuged and plasma was obtained.
Plasma GPT activity and alkaline phosphatase activity were determined by Reitman & Frankel's method and Bessey-Lowry's method, respectively.
The activity was expressed with Karmen Unit and Bessey-Lowry Unit, respectively.

[6] = Table 3-1, control 3.3, ANIT alone 5.3
[7] = Table 3-1, control 7.4, ANIT alone 324.0
[8] = Table 3-3, control 2.9, ANIT alone >9.6
[9] = Table 3-3, control 17.5, ANIT alone >460.2
[10] = Table 3-4, control 3.7, ANIT alone 4.5
[11] = Table 3-4, control 11.3, ANIT alone 300.3

Compound	p-GPT [2]	Liver Damage Index [2]	Alkaline phosphatase activity [3, 6]	p-GPT [3, 7]	Alkaline phosphatase activity [5, 8]	p-GPT [5, 9]	also measured
COC(=O)C(C(=O)OC)=C1SC(O)C(O)S1 (stereo not drawn) [Compound 1]	23 Karmen units	0.0	3.9 B-L.V.	128.0 K.U.	–	–	LD50 [1]: 1000 to 3000 mg/kg; solubility (water solubility; 2% gum arabic aqueous solution, in 2% gum-arabia aqueous solution, read-out: solubility): 20000 µg/mL (≈ 75.1 mM); Triglyceride [4]: 57.5%
CCOC(=O)C(C(=O)OCC)=C1SC(O)C(O)S1 (stereo not drawn) [Compound 2, diethyl 4,5-dihydroxy-1,3-dithiolan-2-ylidenemalonate]	15 Karmen units	0.0	4.4 B-L.V.	28.0 K.U.	–	–	LD50 [1]: 3000 to 5000 mg/kg; Triglyceride [4]: 46.6%
CCCOC(=O)C(C(=O)OCCC)=C1SC(O)C(O)S1 (stereo not drawn) [Compound 3]	12 Karmen units	0.2	4.7 B-L.V.	53.0 K.U.	–	–	LD50 [1]: > 5000 mg/kg; Triglyceride [4]: 39.0%
CC(C)COC(=O)C(C(=O)OCC(C)C)=C1SC(O)C(O)S1 (stereo not drawn) [Compound 5]	135 Karmen units	0.0	–	–	–	–	Alkaline phosphatase activity ([3]; Table 3-2, ANIT alone 5.3): 3.5 B-L.V.; p-GPT ([3]; Table 3-2, ANIT alone >653.7): 134.8 K.U.; Triglyceride [4]: 40.0%
CCCCCOC(=O)C(C(=O)OCCCCC)=C1SC(O)C(O)S1 (stereo not drawn) [Compound 8]	21 Karmen units	0.0	4.3 B-L.V.	56.0 K.U.	–	–	LD50 [1]: > 5000 mg/kg
C=CCOC(=O)C(C(=O)OCC=C)=C1SC(O)C(O)S1 (stereo not drawn) [Compound 12, diallyl 4,5-dihydroxy-1,3-dithiolan-2-ylidenemalonate]	63 Karmen units	1.0	4.9 B-L.V.	19.9 K.U.	–	–	LD50 [1]: 1000 to 3000 mg/kg; solubility (water solubility; water): 2200 µg/mL (≈ 6.91 mM); Triglyceride [4]: 35.4%
CC(C)OC(=O)C(C(=O)OC(C)C)=C1SC(O)C(O)S1 (stereo not drawn) [Compound 23, diisopropyl 4,5-dihydroxy-1,3-dithiolan-2-ylidenemalonate]	22.5 Karmen units	0.0	4.0 B-L.V.	76.0 K.U.	–	–	solubility (water solubility; in water at 20° C., read-out: water solubility): 2000 µg/mL (≈ 6.2 mM)
CC(=O)C(C(=O)OC(C)(C)C)=C1SC(O)C(O)S1 (stereo not drawn) [Compound 41]	105 Karmen units	0.6	–	–	6.0 B-L.V.	132.7 K.U.	–
CCCCCOC(=O)C(C(C)=O)=C1SC(O)C(O)S1 (stereo not drawn) [Compound 42]	31 Karmen units	0.0	–	–	4.8 B-L.V.	30.8 K.U.	–
CC(=O)C(C(=O)OCCC(C)C)=C1SC(O)C(O)S1 (stereo not drawn) [Compound 43]	36 Karmen units	0.2	–	–	5.9 B-L.V.	298.9 K.U.	–
CC(=O)C(C(=O)OC1CCCCC1)=C1SC(O)C(O)S1 (stereo not drawn) [Compound 44]	73 Karmen units	0.4	–	–	5.1 B-L.V.	140.2 K.U.	–
C=CCOC(=O)C(C(C)=O)=C1SC(O)C(O)S1 (stereo not drawn) [Compound 45]	13 Karmen units	0.0	–	–	5.6 B-L.V.	136.9 K.U.	–
C#CCOC(=O)C(C(C)=O)=C1SC(O)C(O)S1 (stereo not drawn) [Compound 46]	16 Karmen units	0.0	–	–	5.3 B-L.V.	29.9 K.U.	–
COCCOC(=O)C(C(C)=O)=C1SC(O)C(O)S1 (stereo not drawn) [Compound 47]	25 Karmen units	0.2	–	–	4.2 B-L.V.	40.1 K.U.	–
CC(=O)C(C(=O)OCc1ccccc1)=C1SC(O)C(O)S1 (stereo not drawn) [Compound 48]	18 Karmen units	0.0	–	–	4.1 B-L.V.	36.8 K.U.	–
CCCC(=O)C(C(=O)OCC)=C1SC(O)C(O)S1 (stereo not drawn) [Compound 50]	75 Karmen units	1.2	–	–	–	–	Alkaline phosphatase activity [5, 10]: 3.0 B-L.V.; p-GPT [5, 11]: 18.5 K.U.
CCCCC(=O)C(C(=O)OCC)=C1SC(O)C(O)S1 (stereo not drawn) [Compound 52]	25 Karmen units	0.4	–	–	–	–	Alkaline phosphatase activity [5, 10]: 3.8 B-L.V.; p-GPT [5, 11]: 24.1 K.U.
